≈ marks a conversion by molar mass, not a printed value. Like-named read-outs stand apart in the source and are kept apart here. Numbered stars: 1 amine (or outer) side, 2 acyl side, 3 side chain; on linkers, the order of the positions; unused ones are H or OH. Bridge positions count the residues as written; N and C are the ends. Square brackets hold non-standard residues; d marks the D form. Peptide text beside a SMILES is read from it. * marks the point of attachment. Phe(3-Me) = Cc1cccc(C[C@H](N)C(=O)O)c1; Pro(4S-Me) = C[C@@H]1CN[C@H](C(=O)O)C1; NH(4-Cl-2-F-phenyl) = Fc1cc(Cl)ccc1N*; Pro(4R-Me) = C[C@H]1CN[C@H](C(=O)O)C1; Propanoyl(3-NMe2) = CN(C)CCC(=O)*; X1 = O=C([C@@H]1CSCCN1[*:1])[*:2]; Hyp = O=C(O)[C@@H]1C[C@@H](O)CN1; NH(4-Me-phenyl) = Cc1ccc(N*)cc1; aThr = C[C@H](O)[C@H](N)C(=O)O; Pip = O=C(O)[C@@H]1CCCCN1; CO = O=C([*:1])[*:2]
Assays:
S. aureus ΔClpP = experiment: Minimal inhibitory concentration, microbroth dilution; format: cell-based, Staphylococcus aureus; conditions: MIC; ClpP inactivated
How it was run: (§1)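 Growth inhibition was scored visually after overnight aerobic culture at 37 °C in CLSI-style microdilution plates. Inocula contained about 10^5 cfu/mL, and compound concentrations descended in twofold steps from 200 μM.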

E. faecails = experiment: as above; format: cell-based; conditions: Enterococcus faecalis
How it was run: as §1

MRSA NRS70 = experiment: as above; format: cell-based; conditions: Staphylococcus aureus
How it was run: as §1

S. aureus ATCC 29213 = experiment: as above; format: cell-based; conditions: Staphylococcus aureus
How it was run: as §1

S. aureus USA 300 = experiment: as above; format: cell-based; conditions: Staphylococcus aureus
How it was run: as §1

Plasma stability assay [1] = format: in vitro ADME, human
Experimental: (§2) The plasma stability property of early drug discovery compounds can influence the in vivo efficacy of the test compounds/drugs. Human and/or mouse plasma degradation is determined using multiple time points to monitor the rate of disappearance of the parent compound during incubation.
(§3) Sample preparation for plasma stability was modified from Di et al. (2005) Int. J. Pharm. 297(1-2): 110-119. A set of incubation times of 0, 3, 24, and 48 hour were used. DMSO stock solutions of test compounds were prepared at 10 mM concentration. 1.8 μL of each test compound was each added directly to 1.8 mL of human/mouse plasma to get the final concentration of 10 μM. This compound/matrix was mixed and 70 μL was transferred to 8 time points plates (each in triplicate wells). For the Time 0 plate, 210 μL of cold acetonitrile with internal standard (4 μg/mL warfarin) was added to each well and no incubation needed. For other seven time points' plate, the plate was incubated at 37° C. for required time, followed by quenching of the reaction by adding 210 μL of cold acetonitrile with internal standard (4 μg/ml warfarin) to each well. All of the plates were sealed and mixed well at 600 rpm for 10 min and were centrifuged at 4000 rpm for 20 min. The supernatants (120 μL) were transferred to analytical plates for analysis by LCMS. Conditions for Waters ACQUITY-UPLC-MS-UV system was described separately. The plasma stability was evaluated via the half-life from least-squares fit of the multiple time points based on first-order kinetics.

Plasma stability assay [2] = format: in vitro ADME, mouse
Experimental: as §2, §3

[3] = read-out: Minimal Inhibitory Concentrations (μM) E. faecails, MIC
[4] = read-out: Minimal Inhibitory Concentrations (μM) MRSA NRS70, MIC
[5] = ATCC29213, read-out: Minimal Inhibitory Concentrations (μM) S. aureus ATCC 29213, MIC
[6] = USA300, read-out: Minimal Inhibitory Concentrations (μM) S. aureus USA 300, MIC
[7] = plasma stability half-life, human plasma, 37° C.
[8] = plasma stability half-life, mouse plasma, 37° C.

SMILES | Minimal Inhibitory Concentrations (μM) S. aureus ΔClpP (S. aureus ΔClpP) | MIC (E. faecails; [3]) | MIC (MRSA NRS70; [4]) | MIC (S. aureus ATCC 29213; [5]) | MIC (S. aureus USA 300; [6]) | Human (Plasma stability assay [1]; [7]) | Mouse (Plasma stability assay [2]; [8]) | MIC (E. faecails; MIC, read-out: Minimal Inhibitory Concentrations (μM) E. faecails) | MIC (MRSA NRS70; MIC, read-out: Minimal Inhibitory Concentrations (μM) MRSA NRS70) | MIC (S. aureus ATCC 29213; ATCC29213, MIC, read-out: Minimal Inhibitory Concentrations (μM) S. aureus ATCC 29213) | MIC (S. aureus USA 300; USA300, MIC, read-out: Minimal Inhibitory Concentrations (μM) S. aureus USA 300) | Human (Plasma stability assay [1]; human, 10 μM) | Mouse (Plasma stability assay [2]; mouse, 10 μM)
Cc1ccc(NC(=O)N[C@@H](Cc2cccc(C)c2)C(=O)N[C@@H]2C(=O)N3C[C@H](O)C[C@H]3C(=O)N3CCSC[C@H]3C(=O)N[C@@H](C)C(=O)N3C[C@H](C)C[C@H]3C(=O)O[C@H]2C)cc1 [Compound 42, (S)—N-((6AS,8R,12S,13S,15AS,17R,21S,23AR)-8-HYDROXY-13,17,21-TRIMETHYL-6,11,15,20,23-PENTAOXOOCTADECAHYDRO-6H,11H,15H-DIPYRROLO[2,1-C:2′,1′-L][1,4]THIAZINO[3,4-I][1]OXA[4,7,10,13]TETRAAZACYCLOHEXADECIN-12-YL)-3-(M-TOLYL)-2-(3-(P-TOLYL)UREIDO)PROPANAMIDE] ({NH(4-Me-phenyl)-CO}-[Phe(3-Me)][aThr][Hyp][X1]A[Pro(4R-Me)]; ester 2-C) | >20 µM | 2.5 µM (≈ 2.05 µg/mL) | 1.25 µM (≈ 1.02 µg/mL) | 1.25 µM (≈ 1.02 µg/mL) | 2.5 µM (≈ 2.05 µg/mL) | >50 h | >50 h | – | – | – | – | – | –
Cc1ccc(NC(=O)N[C@@H](Cc2cccc(C)c2)C(=O)N[C@@H]2C(=O)N3CCC[C@H]3C(=O)N3CCCC[C@H]3C(=O)N[C@@H](C)C(=O)N3C[C@@H](C)C[C@H]3C(=O)O[C@H]2C)cc1 [Compound 45, (S)-3-(M-TOLYL)-2-(3-(P-TOLYL)UREIDO)-N-((2S,6S,8AS,14AS,20S,21S,23AS)-2,6,21-TRIMETHYL-5,8,14,19,23-PENTAOXOOCTADECAHYDRO-1H,5H,14H,19H-PYRIDO[2,1-I]DIPYRROLO[2,1-C:2′,1′-L][1]OXA[4,7,10,13]TETRAAZACYCLOHEXADECIN-20-YL)PROPANAMIDE] ({NH(4-Me-phenyl)-CO}-[Phe(3-Me)][aThr]P[Pip]A[Pro(4S-Me)]; ester 2-C) | >20 µM | 1.25 µM (≈ 0.982 µg/mL) | 1.25 µM (≈ 0.982 µg/mL) | 1.25 µM (≈ 0.982 µg/mL) | 10 µM (≈ 7.86 µg/mL) | >50 h | >50 h | – | – | – | – | – | –
Cc1cccc(C[C@H](NC(=O)Nc2ccc(Cl)cc2F)C(=O)N[C@@H]2C(=O)N3C[C@H](OC(=O)CCN(C)C)C[C@H]3C(=O)N3CCCC[C@H]3C(=O)N[C@@H](C)C(=O)N3C[C@H](C)C[C@H]3C(=O)O[C@H]2C)c1 [Compound 46, (2R,6S,8AS,14AS,16R,20S,21S,23AS)-20-((S)-2-(3-(4-CHLORO-2-FLUOROPHENYL)UREIDO)-3-(M-TOLYL)PROPANAMIDO)-2,6,21-TRIMETHYL-5,8,14,19,23-PENTAOXOOCTADECAHYDRO-1H,5H,14H,19H-PYRIDO[2,1-I]DIPYRROLO[2,1-C:2′,1′-L][1]OXA[4,7,10,13]TETRAAZACYCLOHEXADECIN-16-YL 3-(DIMETHYLAMINO)PROPANOATE] ({NH(4-Cl-2-F-phenyl)-CO}-[Phe(3-Me)][aThr][Hyp](Propanoyl(3-NMe2))[Pip]A[Pro(4R-Me)]; ester 2-C) | >20 µM | – | – | – | – | – | – | 0.156 µM (≈ 0.147 µg/mL) | 0.313 µM (≈ 0.294 µg/mL) | 0.313 µM (≈ 0.294 µg/mL) | 0.313 µM (≈ 0.294 µg/mL) | 0.57 h | 0.49 h
